Measured values taken from publication PMC10606064, “2-Aminothiazole-Flavonoid Hybrid Derivatives Binding to Tau Protein and Responsible for Antitumor Activity in Glioblastoma” (International Journal of Molecular Sciences, 2023).

Columns and labels:
U87 shCTRL cells = test: MTT cell viability assay, U87 shCTRL (expressing Tau); assay type: cell-based, human; conditions: Homo sapiens; U87 shCTRL, 72 h, MTT; mean ± SEM; read-out: IC50 (metabolic activity)
Protocol: (§1) All cell lines were purchased from ATCC, Gaithersburg, MD, USA. Cells from human glioblastoma (clones U87 wt, HTB-14; U118, HTB-15; U251, HTB-12; U138, HTB-16), neuroblastoma (clone SK-N-SH, HTB-11), and colorectal adenocarcinoma (clone Caco-2, HTB-37) were routinely grown at 37 °C in a humidified atmosphere containing 5% CO2. Cells were maintained by regular passages in complete media supplemented with 10% FBS, 2mM of L-glutamine, 100 U/mL of penicillin, and 50 U/mL of streptomycin (Invitrogen, Paris, France). For U87 wt, U251, U138, and SK-N-SH cells, the medium consisted of EMEM (Lonza, Levallois Perret, France). U118 and Caco-2 lines were maintained in DMEM. The U87 wt-derived lines, U87 shCTRL, and U87 shTau2 cells were continuously maintained in complete EMEM medium supplemented with 0.4 µg/mL of puromycin. The shRNA sequences and the protocol of clone selection and Tau downregulation were previously described in [20]. For Tau expression rescue, the U87 shCTRL and U87 shTau cells were seeded two days prior to experiments at 4.10^5 cells per 60 mm dish in 6 mL of complete medium. Cells were transfected using LipofectAmine 2000 according to Invitrogen instructions and 8 µg EGFP-free plasmid constructs (for U87 shCTRL) and EGFP-hTau40 plasmid constructs (for U87 shTau) were used in total. One day prior to experiments, all cells were plated in a 96-well microtiter plate to prepare for viability assays. Cells were free from mycoplasma as determined by mycoalert tests (Lonza).
(§2) Cells harvested from sub-confluent monolayers were seeded at 15,000 cells per mL in a 96-well microtiter plate (Cambridge Technology, Labège, France) and cultured for 24 h under standard conditions. Standard medium was then replaced by fresh medium containing no drugs or compounds at different concentrations. The surviving cells were quantified after 72 h by the MTT assay, according to the manufacturer’s instructions. Briefly, 20 µL of 3-(4,5-diMethylThiazol-2-yl)-2,5diphenyl Tetrazolium bromide (MTT) solution at 5 mg.mL^−1 was added to cells for 3 h at 37 °C. The supernatant was discarded and replaced by 100 µL of dimethyl sulfoxide to dissolve formazan crystals. The absorbance was then read at 600 nm by spectrophotometry. For all concentrations of a given compound, cell viability was expressed as the percentage of the ratio between the mean absorbance of treated cells and the mean absorbance of untreated cells. Three independent experiments were performed, and the data were expressed as percentage of survival (using the untreated cells as 100%) and subjected to statistical analysis (n = 3). The IC50 was calculated using the Chou and Talalay method.

U87 glioblastoma cells = test: MTT cell viability assay, U87; assay type: cell-based, human; conditions: Homo sapiens; U87, 72 h, MTT; mean ± SEM; read-out: IC50 (metabolic activity)
Protocol: as §2

[1] = molecular target: T1, Tau protein (full-length human Tau, hTau40) (Homo sapiens, UniProt P10636); test: Tau intrinsic fluorescence quenching, modified Stern–Volmer binding parameters; conditions: 5 µM Tau, buffer B pH 6.8, mean ± SD; for Kd: read-out: Equilibrium Binding Constants to Tau, KD
T1 construct: The full-length human Tau (hTau40) was expressed in a transformed E. coli BL21 (DE3) strain; made in house; host or cells: E. coli BL21 (DE3)
Protocol: Fluorescence measurements were performed with a Horiba Jobin Yvon FluoroMax-3 spectrofluorometer. […] For experiments, the excitation wavelength was fixed at 275 nm, and the emission spectra were recorded between 280 nm and 500 nm at room temperature. The inner filter effects were corrected according to Lakowicz as follows:F = Fobs × exp{(Aem + Aex)/2}(2) where Fobs and F are the observed and corrected fluorescence values at the emission wavelength of 303 nm. Aex and Aem are the absorptions at the excitation and emission wavelengths, respectively, calculated with A = ε.l.C, in which ε is the extinction coefficient of Tau, l is the path length of cuvette, and C is Tau concentration.
The total fluorescence in the absence of quencher (F0) is given by:F0 = F0a + F0b(4) where 0 refers to the fluorescence intensity in the absence of quencher.
In the presence of quencher, we defined fa as the fraction of the initial fluorescence of Tau accessible to compounds:fa = F0a/(F0a + F0b)(5)
Therefore, the intensity of the accessible fraction (fa) is decreased according to the Stern–Volmer equation, whereas the buried fraction is not quenched, as given by:F = {F0a/(1 + K.[Q])} + F0b(6)
Then, subtraction of Equations (6) and (4) yields:ΔF = F0 − F = F0a × {K.[Q]/(1 + K.[Q])}(7)
At last, inversion of Equation (7) followed by division into Equation (4) yields:F0/ΔF = {1/(fa.K.[Q])} + 1/fa(8)
We applied this modified form of the Stern–Volmer equation to graphically determine the values of fa and K. For our experiments, we plotted F0/ΔF against 1/[Q], then we determined the fa value at the point of intersection with the y-axis, while the slope represented (faK)^−1.

U251 glioblastoma cells = test: MTT cell viability assay, U251; assay type: cell-based; conditions: Homo sapiens, U-251, U251, 72 h, mean ± SEM, read-out: IC50 (metabolic activity)
Protocol: as §2

U138 glioblastoma cells = test: MTT cell viability assay, U138; assay type: cell-based; conditions: Homo sapiens, U138, 72 h, mean ± SEM, read-out: IC50 (metabolic activity)
Protocol: as §2

[2] = molecular target: T2, full-length human Tau (hTau40) (Homo sapiens, UniProt P10636); test: Tau oligomerization inhibition assay (heparin-induced, thioflavin S fluorescence); assay type: biochemical; conditions: 2 µM Tau, heparin-induced, ThS; buffer A pH 6.9; 25 °C per table footnote (37 °C in method); mean ± SD; read-out: Inhibition of Aggregation IC50
T2 construct: The full-length human Tau (hTau40) was expressed in a transformed E. coli BL21 (DE3) strain; made in house; host or cells: E. coli BL21 (DE3)
Protocol: Tau oligomerization inhibition assay was performed at 37 °C in 96-well plates by monitoring thioflavin-S fluorescence at 520 nm after excitation at 440 nm using a microplate reader (POLARstar Omega system, BMG Labtech, Paris, France). The Tau oligomerization process was induced by heparin. […] The plates were shaken at 200 rpm for 10 s before each measurement. The real value of fluorescence at the plateau was determined using SciDAVis v1.23 software. Data were fitted to the SciDAVis built-in ExpGrowth equation by means of nonlinear least-squares regression analysis. Y = Y0 + A × exp(x/t)(1)
The unscaled Levenberg–Marquardt algorithm was used, and initial values were given to Y0, A, and t. The final Y0 value of the model corresponds to the plateau value. The plateau values were then used to calculate the Tau oligomerization inhibition percentage. The IC50 for each compound was calculated from the scatter plot of Tau oligomerization inhibition (in percentage) as a function of log10 of compound concentration. The IC50 value (in µM) thus corresponds to ten raised to the power of […].

T98G glioblastoma cells = test: MTT cell viability assay, T98G; assay type: cell-based; conditions: Homo sapiens, 72 h, mean ± SEM, read-out: IC50 (metabolic activity)
Protocol: as §2

U87 shTau cells = test: MTT cell viability assay, U87 shTau (Tau-depleted); assay type: cell-based; conditions: Homo sapiens, 72 h, mean ± SEM, read-out: IC50 (metabolic activity)
Protocol: as §1, §2

[3] = system: Caco-2 colon adenocarcinoma cells; test: MTT cell viability assay, Caco-2; assay type: cell-based; conditions: Homo sapiens, Caco-2 (not expressing Tau), 72 h, mean ± SEM, read-out: IC50 (metabolic activity)
Protocol: as §2

[4] = system: SK-N-SH neuroblastoma cells; test: MTT cell viability assay, SK-N-SH; assay type: cell-based; conditions: Homo sapiens, 72 h, mean ± SEM, read-out: IC50 (metabolic activity)
Protocol: as §2

T1 sequence (P10636 1-441 isoform P10636-8): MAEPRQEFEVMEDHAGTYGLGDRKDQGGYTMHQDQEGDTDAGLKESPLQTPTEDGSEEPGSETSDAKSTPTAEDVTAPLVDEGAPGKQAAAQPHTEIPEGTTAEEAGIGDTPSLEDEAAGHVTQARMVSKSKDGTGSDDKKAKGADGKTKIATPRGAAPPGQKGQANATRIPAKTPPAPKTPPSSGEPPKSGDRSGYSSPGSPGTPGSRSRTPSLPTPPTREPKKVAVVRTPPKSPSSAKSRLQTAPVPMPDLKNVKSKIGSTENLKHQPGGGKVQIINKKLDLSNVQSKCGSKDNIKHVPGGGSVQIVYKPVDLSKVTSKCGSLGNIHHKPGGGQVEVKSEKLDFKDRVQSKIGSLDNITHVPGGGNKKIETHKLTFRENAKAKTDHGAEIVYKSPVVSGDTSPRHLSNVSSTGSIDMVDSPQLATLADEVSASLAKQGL
T2 sequence (P10636 1-441 isoform P10636-8): as above

Row | Structure (SMILES) | IC50 (U87 shCTRL cells) [µM] | IC50 (U87 glioblastoma cells) [µM] | Kd [1] [µM] | IC50 (U251 glioblastoma cells) [µM] | IC50 (U138 glioblastoma cells) [µM] | IC50 [2] [µM] | IC50 (T98G glioblastoma cells) [µM] | IC50 (U87 shTau cells) [µM] | Equilibrium Binding Constants to Tau, fA (Tyr accessible fraction) [1] | IC50 [3] [µM] | IC50 [4] [µM]
1 | Nc1nc2ccc3oc(-c4cccc(F)c4)c(O)c(=O)c3c2s1 [Compound 10] | 1.2 ± 0.4 | 2.6 ± 1.5 | 6.3 ± 1.2 | 1 ± 0.4 | 0.9 ± 0.4 | 9.9 ± 1.1 | 1.5 ± 0.7 | 1.4 ± 0.6 |  |  | 
2 | Nc1nc2ccc3oc(-c4ccccc4F)cc(=O)c3c2s1 [Compound 6] |  | 2.6 ± 1.3 |  | 1.3 ± 0.4 | 1 ± 0.4 | 9 ± 0.5 | 2.9 ± 0.7 |  |  |  | 
3 | Nc1nc2ccc3oc(-c4cccc(F)c4)cc(=O)c3c2s1 [Compound 7] |  | > 100 | 5.9 ± 1.6 | > 100 | > 100 | 17 ± 2.9 | > 100 |  | 0.21 ± 0.02 |  | 
4 | Nc1nc2ccc3oc(-c4ccc(F)cc4)c(O)c(=O)c3c2s1 [Compound 11] | 0.3 ± 0.2 | 5.1 ± 1.8 | 5.2 ± 1.8 | 1.9 ± 0.2 | 5 ± 1.1 | > 100 | 3.5 ± 1 | 0.4 ± 0.4 | 0.16 ± 0.01 |  | 
5 | Nc1nc2ccc3oc(-c4ccccc4)cc(=O)c3c2s1 [Compound 3] | > 100 | > 100 |  | > 100 | > 100 | > 100 | > 100 | > 100 |  | > 100 | > 100
6 | Nc1nc2ccc3oc(-c4ccccc4)c(O)c(=O)c3c2s1 [Compound 12] | 0.6 ± 0.1 | 4.1 ± 3.4 | 4.7 ± 1.3 |  |  | 12.4 ± 1.2 | 1.7 ± 0.9 | 0.5 ± 0.3 | 0.19 ± 0.05 |  | 
7 | CCOC(=O)c1ccc(-c2cc(=O)c3c(ccc4nc(N)sc43)o2)cc1 [Compound 4] | > 100 | > 100 | 2.4 ± 0.8 | > 100 | > 100 | 9.7 ± 0.2 | > 100 | > 100 | 0.12 ± 0.01 | > 100 | > 100
8 | Nc1nc2ccc3oc(-c4ccc(F)cc4)cc(=O)c3c2s1 [Compound 8] |  | > 100 |  | 3.6 ± 1.1 | 10.2 ± 5 | 15 ± 1.2 | > 100 |  |  |  | 

Now from value to molecule:

Row | IC50 (U87 shCTRL cells) [µM] | IC50 (U87 glioblastoma cells) [µM] | Kd [1] [µM] | IC50 (U251 glioblastoma cells) [µM] | IC50 (U138 glioblastoma cells) [µM] | IC50 [2] [µM] | IC50 (T98G glioblastoma cells) [µM] | IC50 (U87 shTau cells) [µM] | Equilibrium Binding Constants to Tau, fA (Tyr accessible fraction) [1] | IC50 [3] [µM] | IC50 [4] [µM] | Structure (SMILES)
9 | > 100 | > 100 | 5 ± 2.5 | > 100 | > 100 | 10.8 ± 2.2 | > 100 | > 100 | 0.20 ± 0.03 |  |  | Nc1nc2ccc3nc(-c4cccc(Oc5ccccc5)c4)[nH]c(=O)c3c2s1 [Compound 16]
10 |  | 8.8 ± 3.3 | 4.1 ± 1 | 1.9 ± 0.2 | 4.1 ± 1.6 | 6.5 ± 0.1 | 11.3 ± 4.1 |  | 0.23 ± 0.03 |  |  | COc1c(-c2ccc(F)cc2)oc2ccc3nc(N)sc3c2c1=O [Compound 15]
11 | > 100 | 5.1 ± 0.8 | 3.5 ± 1 | > 100 | > 100 | > 100 | > 100 | > 100 | 0.14 ± 0.05 | > 100 | > 100 | Nc1nc2ccc3nc(-c4ccc(Oc5ccccc5)cc4)[nH]c(=O)c3c2s1 [Compound 17]
12 |  | 7.9 ± 3.4 | 5.4 ± 2.5 | 1.7 ± 0.1 | 1.5 ± 0.3 | 9 ± 0.6 | 9.2 ± 1.2 |  | 0.21 ± 0.02 |  |  | COc1c(-c2ccccc2F)oc2ccc3nc(N)sc3c2c1=O [Compound 13]
